Tests used:
[1] = Half life in Beagle dog at 1 mg/kg, iv; assay type: ADME, organism-based, Canis lupus familiaris; parameters: dose 1 mg/kg, route intravenous; settings: in vivo
[2] = target: Angiotensin-converting enzyme (Homo sapiens) (UniProt P12821); assay: Inhibition of ACE at 10 uM
[3] = Volume of distribution in rhesus monkey at 1 mg/kg, iv; assay type: ADME, organism-based, Macaca mulatta; parameters: dose 1 mg/kg, route intravenous; settings: in vivo, read-out: Vdss
[4] = Bioavailability in BALB/c mice […], po; assay type: ADME, organism-based; settings: mouse, in vivo
[5] = Bioavailability in rhesus monkey […], po; assay type: ADME, organism-based, Macaca mulatta; settings: in vivo
[6] = Clearance in Guinea pig at 2 mg/kg, iv; assay type: ADME, organism-based, Cavia porcellus; parameters: dose 2 mg/kg, route intravenous; settings: in vivo
[7] = Half life in New Zealand White rabbit at 5 mg/kg, iv; assay type: ADME, organism-based, Oryctolagus cuniculus; parameters: dose 5 mg/kg, route intravenous; settings: in vivo
[8] = Half life in rhesus monkey at 1 mg/kg, iv; assay type: ADME, organism-based, Macaca mulatta; parameters: dose 1 mg/kg, route intravenous; settings: in vivo
[9] = Clearance in rhesus monkey at 1 mg/kg, iv; assay type: ADME, organism-based, Macaca mulatta; parameters: dose 1 mg/kg, route intravenous; settings: in vivo
[10] = Bioavailability in Sprague-Dawley rat […], po; assay type: ADME, organism-based; settings: in vivo
[11] = Clearance in Beagle dog at 1 mg/kg, iv; assay type: ADME, organism-based, Canis lupus familiaris; parameters: dose 1 mg/kg, route intravenous; settings: in vivo
[12] = target: T1, Endothelin-converting enzyme 1 (Homo sapiens) (UniProt P42892); assay: Inhibition of ECE at 10 uM
T1 sequence (whole entry): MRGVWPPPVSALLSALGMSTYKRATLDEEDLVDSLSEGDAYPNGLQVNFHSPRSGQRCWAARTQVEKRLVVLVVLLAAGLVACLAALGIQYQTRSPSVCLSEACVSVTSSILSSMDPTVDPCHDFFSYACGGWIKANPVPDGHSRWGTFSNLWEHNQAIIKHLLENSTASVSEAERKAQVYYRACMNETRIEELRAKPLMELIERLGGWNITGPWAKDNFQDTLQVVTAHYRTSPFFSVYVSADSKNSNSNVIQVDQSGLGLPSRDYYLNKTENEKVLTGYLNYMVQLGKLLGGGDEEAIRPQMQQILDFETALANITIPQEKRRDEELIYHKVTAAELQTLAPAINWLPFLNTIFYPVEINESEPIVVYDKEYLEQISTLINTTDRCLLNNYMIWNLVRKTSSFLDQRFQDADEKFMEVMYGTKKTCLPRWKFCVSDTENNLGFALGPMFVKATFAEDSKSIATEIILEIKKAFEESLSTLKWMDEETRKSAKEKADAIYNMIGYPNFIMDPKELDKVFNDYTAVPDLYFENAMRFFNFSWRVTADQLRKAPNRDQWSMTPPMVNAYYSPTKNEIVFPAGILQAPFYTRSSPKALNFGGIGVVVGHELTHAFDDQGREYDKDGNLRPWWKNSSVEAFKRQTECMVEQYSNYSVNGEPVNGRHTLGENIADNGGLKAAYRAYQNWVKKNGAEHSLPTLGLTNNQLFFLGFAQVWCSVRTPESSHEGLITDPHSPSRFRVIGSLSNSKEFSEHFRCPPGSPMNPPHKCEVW

[13] = Cmax in Beagle dog at 1 mg/kg, iv; assay type: ADME, organism-based, Canis lupus familiaris; parameters: dose 1 mg/kg, route intravenous; settings: in vivo
[14] = Tmax in Guinea pig at 2 mg/kg, iv; assay type: ADME, organism-based, Cavia porcellus; parameters: dose 2 mg/kg, route intravenous; settings: in vivo
[15] = Half life in Dutch Belted rabbit at 2 mg/kg, iv; assay type: ADME, organism-based, Oryctolagus cuniculus; parameters: dose 2 mg/kg, route intravenous; settings: in vivo
[16] = Bioavailability in Dutch Belted rabbit […], po; assay type: ADME, organism-based, Oryctolagus cuniculus; settings: in vivo
[17] = target: Matrix metalloproteinase-9 (Homo sapiens, UniProt P14780); assay: Inhibition of MMP9
Chain of Matrix metalloproteinase-9 (P14780 whole entry): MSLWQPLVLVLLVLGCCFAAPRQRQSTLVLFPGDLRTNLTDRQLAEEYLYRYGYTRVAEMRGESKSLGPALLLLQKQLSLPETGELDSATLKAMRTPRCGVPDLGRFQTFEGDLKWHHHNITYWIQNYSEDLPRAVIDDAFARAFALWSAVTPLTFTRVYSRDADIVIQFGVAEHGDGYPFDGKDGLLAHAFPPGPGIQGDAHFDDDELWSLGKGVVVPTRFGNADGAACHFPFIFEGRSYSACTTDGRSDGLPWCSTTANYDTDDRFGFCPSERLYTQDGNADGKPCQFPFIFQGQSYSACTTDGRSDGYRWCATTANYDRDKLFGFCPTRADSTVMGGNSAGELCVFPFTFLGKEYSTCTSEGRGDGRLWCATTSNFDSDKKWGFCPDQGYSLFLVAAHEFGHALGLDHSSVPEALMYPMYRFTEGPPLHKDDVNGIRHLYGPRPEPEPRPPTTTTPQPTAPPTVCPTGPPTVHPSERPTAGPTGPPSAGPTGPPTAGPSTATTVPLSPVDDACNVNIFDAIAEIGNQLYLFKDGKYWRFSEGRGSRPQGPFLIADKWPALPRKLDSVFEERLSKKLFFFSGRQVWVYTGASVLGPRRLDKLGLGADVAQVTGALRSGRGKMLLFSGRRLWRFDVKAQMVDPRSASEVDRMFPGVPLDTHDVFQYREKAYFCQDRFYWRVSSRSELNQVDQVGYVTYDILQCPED

[18] = Clearance in Dutch Belted rabbit at 2 mg/kg, iv; assay type: ADME, organism-based, Oryctolagus cuniculus; parameters: dose 2 mg/kg, route intravenous; settings: in vivo
[19] = Volume of distribution in Sprague-Dawley rat at 1 mg/kg, iv; assay type: ADME, organism-based; parameters: dose 1 mg/kg, route intravenous; settings: in vivo, read-out: Vdss
[20] = Volume of distribution in Guinea pig at 2 mg/kg, iv; assay type: ADME, organism-based, Cavia porcellus; parameters: dose 2 mg/kg, route intravenous; settings: in vivo, read-out: Vdss
[21] = Volume of distribution in New Zealand White rabbit at 5 mg/kg, iv; assay type: ADME, organism-based, Oryctolagus cuniculus; parameters: dose 5 mg/kg, route intravenous; settings: in vivo, read-out: Vdss
[22] = target: T2, Lethal factor (Bacillus anthracis, UniProt P15917)
T2 sequence (P15917 whole entry): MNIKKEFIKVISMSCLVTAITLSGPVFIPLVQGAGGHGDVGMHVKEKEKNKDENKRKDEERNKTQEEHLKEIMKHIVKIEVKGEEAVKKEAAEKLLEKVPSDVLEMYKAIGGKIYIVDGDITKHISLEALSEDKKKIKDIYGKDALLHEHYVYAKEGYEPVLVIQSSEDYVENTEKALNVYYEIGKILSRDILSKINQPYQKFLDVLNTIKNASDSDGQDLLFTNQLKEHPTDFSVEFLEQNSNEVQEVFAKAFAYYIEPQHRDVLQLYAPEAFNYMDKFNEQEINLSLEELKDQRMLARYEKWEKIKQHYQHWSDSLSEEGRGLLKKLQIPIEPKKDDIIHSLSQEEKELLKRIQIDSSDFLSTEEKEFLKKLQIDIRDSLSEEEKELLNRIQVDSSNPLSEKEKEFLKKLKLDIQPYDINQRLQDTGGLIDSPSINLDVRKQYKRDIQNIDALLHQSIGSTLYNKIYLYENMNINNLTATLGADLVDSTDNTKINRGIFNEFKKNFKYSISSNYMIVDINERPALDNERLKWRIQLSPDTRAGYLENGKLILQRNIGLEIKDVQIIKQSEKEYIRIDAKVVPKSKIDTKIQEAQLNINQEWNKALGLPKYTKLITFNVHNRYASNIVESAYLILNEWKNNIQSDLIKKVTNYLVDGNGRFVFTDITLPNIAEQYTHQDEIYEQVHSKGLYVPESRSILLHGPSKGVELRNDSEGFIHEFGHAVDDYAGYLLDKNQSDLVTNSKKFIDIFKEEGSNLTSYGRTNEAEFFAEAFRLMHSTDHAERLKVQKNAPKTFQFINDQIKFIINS

[23] = Clearance in New Zealand White rabbit at 5 mg/kg, iv; assay type: ADME, organism-based, Oryctolagus cuniculus; parameters: dose 5 mg/kg, route intravenous; settings: in vivo
[24] = Half life in BALB/c mice at 10 mg/kg, iv; assay type: ADME, organism-based; parameters: dose 10 mg/kg, route intravenous; settings: mouse, in vivo
[25] = target: Matrix metalloproteinase-14 (Homo sapiens, UniProt P50281); assay: Inhibition of MMP14
[26] = Bioavailability in Sprague-Dawley rat at 2 mg/ml, po; assay type: ADME, organism-based; settings: in vivo
[27] = Tmax in Beagle dog at 1 mg/kg, iv; assay type: ADME, organism-based, Canis lupus familiaris; parameters: dose 1 mg/kg, route intravenous; settings: in vivo
[28] = Cmax in Dutch Belted rabbit at 2 mg/kg, iv; assay type: ADME, organism-based, Oryctolagus cuniculus; parameters: dose 2 mg/kg, route intravenous; settings: in vivo
[29] = Tmax in Sprague-Dawley rat at 1 mg/kg, iv; assay type: ADME, organism-based; parameters: dose 1 mg/kg, route intravenous; settings: in vivo
[30] = target: Neprilysin (Homo sapiens, UniProt P08473); assay: Inhibition of NEP
Chain of Neprilysin (P08473 whole entry): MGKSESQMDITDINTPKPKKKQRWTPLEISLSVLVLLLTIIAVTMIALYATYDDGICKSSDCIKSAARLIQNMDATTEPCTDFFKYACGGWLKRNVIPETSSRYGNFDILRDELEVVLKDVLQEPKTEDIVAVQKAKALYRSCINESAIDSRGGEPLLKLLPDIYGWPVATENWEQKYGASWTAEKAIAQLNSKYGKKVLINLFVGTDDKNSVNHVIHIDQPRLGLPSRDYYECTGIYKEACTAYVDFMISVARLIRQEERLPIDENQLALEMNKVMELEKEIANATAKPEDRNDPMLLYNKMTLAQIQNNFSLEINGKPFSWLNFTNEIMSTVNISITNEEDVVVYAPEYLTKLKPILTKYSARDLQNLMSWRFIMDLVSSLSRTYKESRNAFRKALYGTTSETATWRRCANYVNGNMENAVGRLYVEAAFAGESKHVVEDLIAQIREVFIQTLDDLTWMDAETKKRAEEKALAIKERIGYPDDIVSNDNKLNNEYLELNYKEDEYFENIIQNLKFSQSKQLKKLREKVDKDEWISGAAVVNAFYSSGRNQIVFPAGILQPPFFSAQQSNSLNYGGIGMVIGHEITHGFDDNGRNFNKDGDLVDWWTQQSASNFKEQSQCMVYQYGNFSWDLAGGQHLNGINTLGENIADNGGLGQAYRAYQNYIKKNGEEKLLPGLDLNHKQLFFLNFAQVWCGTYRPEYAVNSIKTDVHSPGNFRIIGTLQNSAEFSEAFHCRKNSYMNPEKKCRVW

[31] = Cmax in rhesus monkey at 1 mg/kg, iv; assay type: ADME, organism-based, Macaca mulatta; parameters: dose 1 mg/kg, route intravenous; settings: in vivo
[32] = Tmax in BALB/c mice at 10 mg/kg, iv; assay type: ADME, organism-based; parameters: dose 10 mg/kg, route intravenous; settings: mouse, in vivo
[33] = Tmax in Dutch Belted rabbit at 2 mg/kg, iv; assay type: ADME, organism-based, Oryctolagus cuniculus; parameters: dose 2 mg/kg, route intravenous; settings: in vivo
[34] = Clearance in Sprague-Dawley rat at 1 mg/kg, iv; assay type: ADME, organism-based; parameters: dose 1 mg/kg, route intravenous; settings: in vivo
[35] = Tmax in rhesus monkey at 1 mg/kg, iv; assay type: ADME, organism-based, Macaca mulatta; parameters: dose 1 mg/kg, route intravenous; settings: in vivo
[36] = Bioavailability in Beagle dog […], po; assay type: ADME, organism-based, Canis lupus familiaris; settings: in vivo
[37] = Volume of distribution in Beagle dog at 1 mg/kg, iv; assay type: ADME, organism-based, Canis lupus familiaris; parameters: dose 1 mg/kg, route intravenous; settings: in vivo, read-out: Vdss
[38] = Cmax in Guinea pig at 2 mg/kg, iv; assay type: ADME, organism-based, Cavia porcellus; parameters: dose 2 mg/kg, route intravenous; settings: in vivo

Chain of Angiotensin-converting enzyme (Homo sapiens) (P12821 whole entry): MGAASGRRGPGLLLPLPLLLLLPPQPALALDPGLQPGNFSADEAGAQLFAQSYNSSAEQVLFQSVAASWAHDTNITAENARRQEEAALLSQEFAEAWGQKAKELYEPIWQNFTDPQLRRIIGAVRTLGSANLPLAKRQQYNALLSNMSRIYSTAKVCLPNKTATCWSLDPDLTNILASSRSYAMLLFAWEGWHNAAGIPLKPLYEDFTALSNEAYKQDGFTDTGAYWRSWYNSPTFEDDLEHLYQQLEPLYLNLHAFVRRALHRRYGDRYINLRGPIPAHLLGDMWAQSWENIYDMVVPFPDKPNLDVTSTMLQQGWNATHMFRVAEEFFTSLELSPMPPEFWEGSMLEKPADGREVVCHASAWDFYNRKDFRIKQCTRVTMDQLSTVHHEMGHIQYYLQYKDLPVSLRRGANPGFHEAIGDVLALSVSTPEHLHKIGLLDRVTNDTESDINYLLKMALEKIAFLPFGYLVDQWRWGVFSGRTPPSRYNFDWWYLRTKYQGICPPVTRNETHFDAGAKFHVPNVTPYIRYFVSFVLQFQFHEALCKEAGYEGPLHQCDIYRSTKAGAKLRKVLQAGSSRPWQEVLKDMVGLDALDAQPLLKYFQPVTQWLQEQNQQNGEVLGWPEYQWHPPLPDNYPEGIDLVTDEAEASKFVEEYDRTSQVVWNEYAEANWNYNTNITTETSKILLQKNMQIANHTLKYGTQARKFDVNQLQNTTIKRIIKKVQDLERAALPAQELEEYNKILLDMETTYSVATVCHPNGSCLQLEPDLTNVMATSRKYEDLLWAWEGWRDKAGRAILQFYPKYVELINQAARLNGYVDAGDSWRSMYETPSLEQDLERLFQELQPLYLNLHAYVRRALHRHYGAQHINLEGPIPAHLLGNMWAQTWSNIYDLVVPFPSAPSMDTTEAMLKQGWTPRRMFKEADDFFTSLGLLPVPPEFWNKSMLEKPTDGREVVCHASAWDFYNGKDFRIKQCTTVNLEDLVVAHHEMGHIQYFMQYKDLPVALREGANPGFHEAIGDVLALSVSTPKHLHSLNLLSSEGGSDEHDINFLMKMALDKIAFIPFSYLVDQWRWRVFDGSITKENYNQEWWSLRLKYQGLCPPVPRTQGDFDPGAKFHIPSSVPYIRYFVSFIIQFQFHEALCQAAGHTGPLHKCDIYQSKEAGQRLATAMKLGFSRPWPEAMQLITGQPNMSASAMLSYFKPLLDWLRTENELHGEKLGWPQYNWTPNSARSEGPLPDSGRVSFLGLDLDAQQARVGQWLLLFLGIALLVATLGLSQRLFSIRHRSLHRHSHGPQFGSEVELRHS

Cc1cc(S(=O)(=O)N[C@@H](C(=O)NO)C2CCOCC2)ccc1F
half-life [1]: 282 min
inhibition [2]: < 10%
Vd [3]: 3.3 L/kg
bioavailability [4]: 20%
bioavailability [5]: 16%
clearance [6]: 24 mL/min/kg
half-life [7]: 150 min
half-life [8]: 144 min
clearance [9]: 23 mL/min/kg
bioavailability [10]: 51%
clearance [11]: 15 mL/min/kg
inhibition [12]: < 10%
Cmax [13]: 730 nM
Tmax [14]: 48 min
half-life [15]: 120 min
bioavailability [16]: 0.5%
IC50 [17]: 2 µM
clearance [18]: 14 mL/min/kg
Vd [19]: 3.9 L/kg
Vd [20]: 1.1 L/kg
Vd [21]: 3.8 L/kg
IC50 [22]: 0.21 µM
clearance [23]: 35 mL/min/kg
half-life [24]: 24 min
IC50 [25]: 6.5 µM
bioavailability [26]: 71%
Tmax [27]: 48 min
Cmax [28]: 12 nM
Tmax [29]: 18 min
IC50 [30]: 9.4 µM
Cmax [31]: 120 nM
Tmax [32]: 18 min
Tmax [33]: 18 min
clearance [34]: 80 mL/min/kg
Tmax [35]: 78 min
bioavailability [36]: 57%
Vd [37]: 2.4 L/kg
Cmax [38]: 250 nM
